For one data set, the target named is T1, MUC1-CT (Homo sapiens, UniProt P15941).
T1 construct: endogenous C-terminal beta subunit (MUC1-CT) of the cleaved MUC1 precursor in intact H1975 cells; detected by western blot with anti-MUC1-CT
T1 sequence (P15941 1098-1255 limits assumed): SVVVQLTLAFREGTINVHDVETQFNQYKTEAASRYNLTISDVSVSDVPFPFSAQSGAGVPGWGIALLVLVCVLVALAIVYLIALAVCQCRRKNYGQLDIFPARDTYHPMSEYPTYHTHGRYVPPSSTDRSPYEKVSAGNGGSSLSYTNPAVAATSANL
The data set is described as follows: cellular thermal shift assay, western blot. It counts as cell-based. Conditions: intact H1975 cells, 1 mM AICAR for 15 min, heated 3 min at 37-55 °C; stabilisation shown as curve only, no Tm; intracellular phosphorylation to ZMP possible. For orientation: Immunoblotting shows a protein as a band on a membrane.

A further data set relates to A549. The data set is described as follows: cells. Conditions: Homo sapiens, A549; viability, 72 h. Set-up: species or system panel of lung tumour and stromal cell lines; CellTiter-Glo luminescent cell viability, 2D monolayer, 3000 cells per well in 96-well plate, vehicle-normalised. As for the experimental part:
(§1) For 2D monolayer cell cultures, 3000 cells were plated into each well of a white 96-well plate in three replicates. After attachment, the cells were treated with AICAR, VX-509, osimertinib, and ABT-702 alone or in combinations for 72 h. The cell viability was measured at the treatment endpoint using the CellTiter-Glo® luminescent cell viability assay kit (Promega, Cat #G7570) according to the manufacturer’s instructions. The luminescent signal was recorded as relative light units (RLU). For 3D organoid cultures, the cell viability was measured using CellTiter-Glo 3D® Cell Viability Assay (Promega, Cat #G9681) according to the manufacturer’s protocol. The relative cell viability treated with the vehicle was normalised as 1. To explore the effects of AICAR treatment on lung cancer cell lines, we performed a cell viability assay using a panel of lung cancer cell lines based on the status of EGFR mutations (Table S1). […] To understand whether AICAR’s effects are dependent upon EGFR mutations, we tested drug response in another panel of lung cancer cells with wild-type EGFR, including H358, H23, H441, A549, and H69 (Fig. 1b). The average EC50 of tested EGFR wild-type cell lines (1.31 ± 0.18 mM) was higher than that of EGFR-mutant cell lines upon AICAR treatment (p < 0.05). To examine if there was any toxicity in stromal cells, we measured AICAR treatment response in a panel of primary lung stromal cell lines, including CCD-13Lu (fibroblasts), HULEC-5A (endothelial cells), and NR8383 (macrophages). […] 3000 cells (H3255, PC9-ER, HCC827, H1650, PC9, and H1975) were plated in a 96-well plate and treated with increasing doses of AICAR (0–10 mM). The cell viability was measured three days after treatment. Values were normalised to a vehicle-treated control group. N = 3 replicates. b Cell viability assay of AICAR in EGFR wild-type lung adenocarcinoma and small cell lung cancer cell lines. 3000 cells (A549, H23, H69, H358, and H441) were plated in a 96-well plate and treated with increasing doses of AICAR (0–10 mM). The cell viability was measured three days after treatment. Values were normalised to a vehicle-treated control group. N = 3 replicates. c Cell viability assay of AICAR in multiple types of primary lung stromal cells. 3000 cells (macrophages NR8383, endothelial cells HULEC-5A, and fibroblasts CCD-13Lu) were plated in a 96-well plate and treated with increasing doses of AICAR (0–10 mM). The cell viability was measured three days after treatment. Values were normalised to a vehicle-treated control group. N = 3 replicates. d Quantification of EC50 in EGFR mutant, wild-type, and non-malignant stromal lung cells. N = 3 replicates. e Flow cytometry analysis for time-dependent apoptosis in EGFR-mutant H1975 cells treated with AICAR. H1975 cells were plated in a 24-well plate and treated with AICAR (1 mM) for 0, 4, 7, and 16 h. After treatment, the apoptotic cells were quantified by flow cytometry analysis of cells stained with Annexin-V-APC and 7AAD. N = 4 replicates. f–h Flow cytometry analysis for apoptosis in multiple cell lines treated with AICAR. EGFR-mutant PC9 (f) and EGFR wild-type A549 (g) and H23 (h) cells were plated in a 24-well plate and treated with AICAR (1 mM) and vehicle control for 7 h. After treatment, the apoptotic cells were quantified by flow cytometry analysis of cells stained with Annexin-V-APC and 7AAD. N = 4 replicates. i, j Western blotting and relative quantification for expression levels of γ-H2AX (S139), H2AX, p-p53 (S33), p53, and […]

The subject of a further data set is H1650. The experiment in a line: cells. Set-up: species or system panel of lung tumour and stromal cell lines; CellTiter-Glo luminescent cell viability, 2D monolayer, 3000 cells per well in 96-well plate, vehicle-normalised. The following applies: Homo sapiens, NCI-H1650; viability, 72 h. As for the experimental part:
as §1

In the next data set the test system is H1975. The data set is described as follows: cells. Set-up: species or system panel of lung tumour and stromal cell lines; CellTiter-Glo luminescent cell viability, 2D monolayer, 3000 cells per well in 96-well plate, vehicle-normalised. The following applies: Homo sapiens, NCI-H1975; viability, 72 h. As for the experimental part: as §1
Another data set has as its system H23. The experiment in a line: cells. Set-up: species or system panel of lung tumour and stromal cell lines; CellTiter-Glo luminescent cell viability, 2D monolayer, 3000 cells per well in 96-well plate, vehicle-normalised. The following applies: Homo sapiens, NCI-H23; viability, 72 h. As for the experimental part:
as §1

The next data set has as its system H3255. The data set is described as follows: cells. Set-up: species or system panel of lung tumour and stromal cell lines; CellTiter-Glo luminescent cell viability, 2D monolayer, 3000 cells per well in 96-well plate, vehicle-normalised. The following applies: Homo sapiens, NCI-H3255; viability, 72 h. The procedure: as §1
Another data set concerns H358. The experiment in a line: cells. Set-up: species or system panel of lung tumour and stromal cell lines; CellTiter-Glo luminescent cell viability, 2D monolayer, 3000 cells per well in 96-well plate, vehicle-normalised. Conditions: Homo sapiens, NCI-H358; viability, 72 h. The procedure: as §1
For the next data set, the system named is H441. The data set is described as follows: cells. Set-up: species or system panel of lung tumour and stromal cell lines; CellTiter-Glo luminescent cell viability, 2D monolayer, 3000 cells per well in 96-well plate, vehicle-normalised. The following applies: Homo sapiens, NCI-H441; viability, 72 h. The procedure:
as §1

Another data set has as its system H69. The data set is described as follows: cells. Conditions: Homo sapiens, NCI-H69; viability, 72 h. Set-up: species or system panel of lung tumour and stromal cell lines; CellTiter-Glo luminescent cell viability, 2D monolayer, 3000 cells per well in 96-well plate, vehicle-normalised. As for the experimental part:
as §1

Another data set relates to HCC827. The experiment in a line: cells. Conditions: Homo sapiens, HCC827; viability, 72 h. Set-up: species or system panel of lung tumour and stromal cell lines; CellTiter-Glo luminescent cell viability, 2D monolayer, 3000 cells per well in 96-well plate, vehicle-normalised. The procedure: as §1
Another data set has as its system PC9-ER. The data set is described as follows: cells. Set-up: species or system panel of lung tumour and stromal cell lines; CellTiter-Glo luminescent cell viability, 2D monolayer, 3000 cells per well in 96-well plate, vehicle-normalised. The following applies: Homo sapiens, PC-9/ER; viability, 72 h. As for the experimental part:
as §1

A further data set deals with PC9. The experiment in a line: cells. The following applies: Homo sapiens, PC-9; viability, 72 h. Set-up: species or system panel of lung tumour and stromal cell lines; CellTiter-Glo luminescent cell viability, 2D monolayer, 3000 cells per well in 96-well plate, vehicle-normalised. The procedure: as §1
The next data set in a line: in vitro. Set-up: species or system panel of lung tumour and stromal cell lines; CellTiter-Glo luminescent cell viability, 2D monolayer, 3000 cells per well in 96-well plate, vehicle-normalised. The following applies: panel of lung tumour and stromal cell lines, EC50 (mM), viability, given as EC50. The procedure:
(§2) For 2D monolayer cell cultures, 3000 cells were plated into each well of a white 96-well plate in three replicates. After attachment, the cells were treated with AICAR, VX-509, osimertinib, and ABT-702 alone or in combinations for 72 h. The cell viability was measured at the treatment endpoint using the CellTiter-Glo® luminescent cell viability assay kit (Promega, Cat #G7570) according to the manufacturer’s instructions. The luminescent signal was recorded as relative light units (RLU). For 3D organoid cultures, the cell viability was measured using CellTiter-Glo 3D® Cell Viability Assay (Promega, Cat #G9681) according to the manufacturer’s protocol. The relative cell viability treated with the vehicle was normalised as 1. To explore the effects of AICAR treatment on lung cancer cell lines, we performed a cell viability assay using a panel of lung cancer cell lines based on the status of EGFR mutations (Table S1). […] To understand whether AICAR’s effects are dependent upon EGFR mutations, we tested drug response in another panel of lung cancer cells with wild-type EGFR, including H358, H23, H441, A549, and H69 (Fig. 1b). […] To examine if there was any toxicity in stromal cells, we measured AICAR treatment response in a panel of primary lung stromal cell lines, including CCD-13Lu (fibroblasts), HULEC-5A (endothelial cells), and NR8383 (macrophages). […] The cell viability was measured three days after treatment. […] The cell viability was measured three days after treatment. […] The cell viability was measured three days after treatment. […] N = 3 replicates. d Quantification of EC50 in EGFR mutant, wild-type, and non-malignant stromal lung cells. […] After treatment, the apoptotic cells were quantified by flow cytometry analysis of cells stained with Annexin-V-APC and 7AAD. […] After treatment, the apoptotic cells were quantified by flow cytometry analysis of cells stained with Annexin-V-APC and 7AAD. N = 4 replicates. i, j Western blotting and relative quantification for expression levels of γ-H2AX (S139), H2AX, p-p53 (S33), p53, and […]

In a further data set the test system is HULEC-5A. The data set is described as follows: in vitro. Set-up: species or system panel of lung tumour and stromal cell lines; CellTiter-Glo luminescent cell viability, 2D monolayer, 3000 cells per well in 96-well plate, vehicle-normalised. The following applies: viability, 72 h; given as EC50; inhibitor. As for the experimental part:
as §2

Another data set concerns NR8383. The data set is described as follows: in vitro. Set-up: species or system panel of lung tumour and stromal cell lines; CellTiter-Glo luminescent cell viability, 2D monolayer, 3000 cells per well in 96-well plate, vehicle-normalised. The following applies: viability, 72 h; given as EC50; inhibitor. As for the experimental part:
as §2

What is called EC50 is the concentration that produces a half-maximal response. As usually defined, the CC50 is the concentration giving 50% cytotoxicity. Consider `NC(=O)c1ncn([C@@H]2O[C@H](CO)[C@@H](O)[C@H]2O)c1N` [AICAR], for which, on MUC1-CT, the thermal stability result is reported as “AICAR incubation in H1975 cells significantly increased protein stability in MUC1-CT than vehicle-treated groups”. In addition, the EC50 in the data set on A549 worked out at 1600 µM; with H1650, 420 µM; in the data set on H1975, 298 µM; in the data set on H23, 1610 µM; with H3255, 320 µM; in the data set on H358 it was 1280 µM. Moreover, the EC50 worked out at 640 µM with H441; 1440 µM in the data set with H69; 880 µM in the data set with HCC827; 410 µM with PC9-ER; 300 µM in the data set on PC9. The cytotoxic concentration (CC50) at 72 h in the data set “in vitro” was 1.03 mM. The results for the cytotoxic concentration (CC50) in the data set on HULEC-5A and with NR8383 were 1450 µM and 1110 µM, respectively.

(Values after paper PMC10133251, “An intrinsic purine metabolite AICAR blocks lung tumour growth by targeting oncoprotein mucin 1” (British Journal of Cancer, 2023).)
